Results: patent US8288371B2, “Ortho pyrrolidine, benzyl-substituted heterocycle CCR1 antagonists for autoimmune diseases and inflammation” (Pharmacopeia, LLC, priority 2007, dated 2012)

Molecular target: T1, human CCR1 (Homo sapiens, UniProt P32246)
T1 sequence (P32246 1-355): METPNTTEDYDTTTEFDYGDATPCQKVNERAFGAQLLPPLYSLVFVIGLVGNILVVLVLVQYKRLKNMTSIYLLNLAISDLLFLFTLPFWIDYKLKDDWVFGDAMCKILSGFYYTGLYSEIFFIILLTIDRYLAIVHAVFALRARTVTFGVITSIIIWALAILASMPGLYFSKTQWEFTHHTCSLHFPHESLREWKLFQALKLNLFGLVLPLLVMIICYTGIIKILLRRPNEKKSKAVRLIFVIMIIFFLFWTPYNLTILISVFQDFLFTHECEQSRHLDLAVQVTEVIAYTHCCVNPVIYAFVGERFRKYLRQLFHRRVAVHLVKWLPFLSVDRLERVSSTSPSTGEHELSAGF
Assay: CCR1 binding protocol (SPA, [125I]-MIP-1α displacement)
Conditions: cell membrane expressing human CCR1, 0.1 nM [125I]-MIP-1α, 4 hours at ambient temperature; read-out: Relative potency (IC50)
Outline: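 Displacement of 0.1 nM [125I]-MIP-1α (final) from membranes expressing human CCR1 was measured by scintillation proximity after 4 h at ambient temperature. Conditions: pH 7.4 Tris buffer with 0.1% BSA and MnCl, and 0.5 μg membrane per well. Compounds were tested as a 10-step ½-log series from a 10 mM DMSO stock to derive IC50.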

IC50 [nM]	SMILES
< 50	Cc1nnc([C@H]2CCCN2C(=O)Nc2ccc(C(F)(F)F)[n+]([O-])c2C)n1Cc1ccc(Cl)cc1 [Compound 519]
< 50	Cc1cc(C)[n+]([O-])c(C)c1NC(=O)N1CCC[C@@H]1c1nnc(C)n1Cc1ccc(Cl)cc1 [Compound 520]
< 50	Cc1nc(C(F)(F)F)ccc1NC(=O)N1C[C@H](O)C[C@@H]1c1nnc(C)n1Cc1ccc(Cl)cc1 [Compound 521]
< 50	Cc1nnc([C@H]2C[C@@H](O)CN2C(=O)N[C@H]2CCOc3cc(C#N)ccc32)n1Cc1ccc(Cl)cc1 [Compound 522]
< 50	Cc1nnc([C@H]2C[C@H](O)CN2C(=O)N[C@H]2CCOc3cc(C#N)ccc32)n1Cc1ccc(Cl)cc1 [Compound 523]
< 50	Cc1nnc([C@H]2CCCN2C(=O)Nc2ccc(C(F)(F)F)nc2Cl)n1Cc1ccc(Cl)cc1 [Compound 524]
50 to 500	Cc1nnc([C@H]2CC(C)(O)CN2C(=O)N[C@H]2CCOc3cc(C(F)(F)F)ccc32)n1Cc1ccc(Cl)cc1 (stereo partly shown) [Compound 526]
50 to 500	Cc1nnc([C@H]2CCCN2/C(=N/C#N)Nc2ccc(Cl)cc2F)n1Cc1ccc(Cl)cc1 [Compound 529]
50 to 500	Cc1nnc([C@H]2CCCN2c2c(N[C@H]3CCOc4cc(C(F)(F)F)ccc43)c(=O)c2=O)n1Cc1ccc(Cl)cc1 [Compound 530]
50 to 500	Cc1nc(C(F)(F)F)ccc1NC(=O)N1CCC[C@@H]1c1nnc(C)n1Cc1ccc(F)cc1 [Compound 531]
50 to 500	Cc1nnc([C@H]2CC(C)(O)CN2C(=O)Nc2ccc(Cl)cc2F)n1Cc1ccc(Cl)cc1 (stereo partly shown) [Compound 532]
50 to 500	Cc1nnc([C@H]2CCCN2C(=O)C(C)c2cc(C(F)(F)F)ccc2Cl)n1Cc1ccc(Cl)cc1 (stereo partly shown) [Compound 533]
50 to 500	Cc1nnc([C@H]2CCCN2C(=O)Nc2ccc(Cl)cc2F)n1Cc1ccc(Br)cc1 [Compound 534]
< 50	Cc1nc(C(F)(F)F)ccc1NC(=O)N1CCC[C@@H]1c1nnc(C)n1Cc1ccc(Br)cc1 [Compound 535]
500 to 5000	Cc1nnc([C@H]2CCCN2c2c(Nc3ccc(Cl)cc3F)c(=O)c2=O)n1Cc1ccc(Cl)cc1 [Compound 536]
< 50	Cc1nnc([C@H]2CCCN2C(=O)N[C@H]2CCOc3cc(C(F)(F)F)ccc32)n1Cc1ccc(Br)cc1 [Compound 537]
500 to 5000	Cc1nc(C(F)(F)F)ccc1NC(=O)N1CCC[C@@H]1c1nnc(C)n1Cc1cccc(Cl)c1 [Compound 538]
50 to 500	Cc1nc(C(F)(F)F)ccc1N/C(=N\C#N)N1CCC[C@@H]1c1nnc(C)n1Cc1ccc(Cl)cc1 [Compound 539]
500 to 5000	Cc1nnc([C@H]2CCCN2C(=O)N[C@H]2CCOc3cc(C(F)(F)F)ccc32)n1Cc1cccc(Br)c1 [Compound 540]
50 to 500	COC1C[C@H](c2nnc(C)n2Cc2ccc(Cl)cc2)N(C(=O)Nc2ccc(Cl)cc2F)C1 (stereo partly shown) [Compound 541]
50 to 500	COC1C[C@H](c2nnc(C)n2Cc2ccc(Cl)cc2)N(C(=O)Nc2ccc(C(F)(F)F)nc2C)C1 (stereo partly shown) [Compound 542]
50 to 500	COC1C[C@H](c2nnc(C)n2Cc2ccc(Cl)cc2)N(C(=O)N[C@H]2CCOc3cc(C(F)(F)F)ccc32)C1 (stereo partly shown) [Compound 543]

IC50 [nM]	SMILES
50 to 500	Cc1nc(C(F)(F)F)ccc1NC(=O)N1CC2CC2C1c1nnc(C)n1Cc1ccc(Cl)cc1 (stereo not shown) [Compound 544]
50 to 500	Cc1nnc(C2C3CC3CN2C(=O)Nc2ccc(Cl)cc2F)n1Cc1ccc(Cl)cc1 (stereo not shown) [Compound 545]
50 to 500	Cc1nnc(C2C3CC3CN2C(=O)N[C@H]2CCOc3cc(C(F)(F)F)ccc32)n1Cc1ccc(Cl)cc1 (stereo partly shown) [Compound 546]
50 to 500	Cc1nnc(C2C3CC3CN2C(=O)NC(c2ccccc2)c2ccccc2)n1Cc1ccc(Cl)cc1 (stereo not shown) [Compound 547]
50 to 500	Cc1nc(C(F)(F)F)ccc1NC(=O)N1CCC[C@@H]1c1ncnn1Cc1ccc(Cl)cc1 [Compound 548]
< 50	Cc1nc(C(F)(F)F)ccc1NC(=O)N1CCC[C@@H]1c1nnc(Cl)n1Cc1ccc(Cl)cc1 [Compound 549]
500 to 5000	Cc1nnc([C@H]2CCCN2C(=O)Nc2ccc(-c3ncccn3)cc2)n1Cc1ccc(Cl)cc1 [Compound 550]
500 to 5000	Cc1nnc([C@H]2CCCN2C(=O)Nc2ccc(OC3CCOCC3)nc2)n1Cc1ccc(Cl)cc1 [Compound 551]
< 50	O=C(Nc1ccc(Cl)cc1F)N1CCC[C@@H]1c1nnc(Cl)n1Cc1ccc(Cl)cc1 [Compound 552]
500 to 5000	Cc1nc(C(F)(F)F)ccc1NC(=O)N1CCC[C@@H]1c1nnc(C)n1Cc1cccc(Br)c1 [Compound 553]
50 to 500	Cc1noc(C)c1NC(=O)N1CCC[C@@H]1c1nnc(C)n1Cc1ccc(Br)cc1 [Compound 554]
500 to 5000	Cc1noc(C)c1Nc1c(N2CCC[C@@H]2c2nnc(C)n2Cc2ccc(Cl)cc2)c(=O)c1=O [Compound 555]
< 50	O=C(Nc1ccc(Cl)cc1F)N1CCC[C@@H]1c1nncn1Cc1ccc(Cl)cc1 [Compound 556]
< 50	Cc1nc(C(F)(F)F)ccc1NC(=O)N1CCC[C@@H]1c1nncn1Cc1ccc(Cl)cc1 [Compound 557]
500 to 5000	Cc1nnc([C@H]2C[C@@H](O)CN2C(=O)Nc2ccc(OC3CCOCC3)nc2)n1Cc1ccc(Cl)cc1 [Compound 558]
< 50	Cc1cc(C)c(S(=O)(=O)N(C)C)cc1NC(=O)N1CCC[C@@H]1c1nnc(C)n1Cc1ccc(Br)cc1 [Compound 559]
< 50	CC[C@H](NC(=O)N1CCC[C@@H]1c1nnc(C)n1Cc1ccc(F)cc1)c1ccc(C(F)(F)F)nc1 [Compound 560]
< 50	CC[C@H](NC(=O)N1CCC[C@@H]1c1nnc(C)n1Cc1ccc(Br)cc1)c1ccc(C(F)(F)F)nc1 [Compound 561]
50 to 500	CC[C@H](Nc1c(N2CCC[C@@H]2c2nnc(C)n2Cc2ccc(Cl)cc2)c(=O)c1=O)c1ccc(C(F)(F)F)nc1 [Compound 562]
< 50	Cc1nc(C(F)(F)F)ccc1NC(=O)N1CC2CC2[C@@H]1c1nnc(C)n1Cc1ccc(Cl)cc1 (stereo partly shown) [Compound 563]
50 to 500	Cc1noc(C)c1NC(=O)N1CC2CC2[C@@H]1c1nnc(C)n1Cc1ccc(Cl)cc1 (stereo partly shown) [Compound 564]
50 to 500	Cc1nnc([C@H]2C3CC3CN2C(=O)Nc2ccc(Cl)cc2F)n1Cc1ccc(Cl)cc1 (stereo partly shown) [Compound 565]

IC50 [nM]	SMILES
50 to 500	Cc1nc(C(F)(F)F)ccc1NC(=O)N1CCC[C@@H]1c1ncc(C)n1Cc1ccc(Cl)cc1 [Compound 566]
50 to 500	Cc1cnc([C@H]2CCCN2C(=O)Nc2ccc(Cl)cc2F)n1Cc1ccc(Cl)cc1 [Compound 567]
50 to 500	Cc1nnc([C@H]2CCCN2C(=O)Nc2ccc(Cl)c(C(F)(F)F)c2)n1Cc1ccc(Br)cc1 [Compound 568]
50 to 500	Cc1nnc([C@H]2CC(F)CN2C(=O)NC(c2ccccc2)c2ccccc2)n1Cc1ccc(Cl)cc1 (stereo partly shown) [Compound 569]
< 50	Cc1nnc([C@H]2CC(F)CN2C(=O)NCc2ccc(Cl)c(Cl)c2)n1Cc1ccc(Cl)cc1 (stereo partly shown) [Compound 570]
50 to 500	Cc1nnc([C@H]2CC(F)CN2C(=O)Nc2ccc(Cl)cc2F)n1Cc1ccc(Cl)cc1 (stereo partly shown) [Compound 571]
50 to 500	Cc1nnc([C@H]2CC(F)CN2C(=O)Nc2ccc(Cl)c(C(F)(F)F)c2)n1Cc1ccc(Cl)cc1 (stereo partly shown) [Compound 572]
< 50	Cc1noc(-c2ccccc2)c1NC(=O)N1CC(F)C[C@@H]1c1nnc(C)n1Cc1ccc(Cl)cc1 (stereo partly shown) [Compound 573]
< 50	Cc1nnc([C@H]2CC(F)CN2C(=O)N[C@H]2CCOc3cc(C(F)(F)F)ccc32)n1Cc1ccc(Cl)cc1 (stereo partly shown) [Compound 574]
< 50	Cc1noc(C)c1NC(=O)N1CC(F)C[C@@H]1c1nnc(C)n1Cc1ccc(Cl)cc1 (stereo partly shown) [Compound 575]
50 to 500	Cc1nnc([C@H]2CC(F)CN2C(=O)NC2C[C@@H]2c2ccccc2)n1Cc1ccc(Cl)cc1 (stereo partly shown) [Compound 576]
< 50	CC[C@H](NC(=O)N1CCC[C@@H]1c1nnc(C)n1Cc1ccc(F)cc1)c1ccc(C(F)(F)F)cc1 [Compound 577]
< 50	CC[C@H](NC(=O)N1CCC[C@@H]1c1nnc(C)n1Cc1ccc(Br)cc1)c1ccc(C(F)(F)F)cc1 [Compound 578]
500 to 5000	Cc1nnc([C@H]2CCCN2c2c(Nc3ccc(F)cc3F)c(=O)c2=O)n1Cc1ccc(Cl)cc1 [Compound 579]
< 50	Cc1nc(C(F)(F)F)ccc1NC(=O)N1CC(F)C[C@@H]1c1nnc(C)n1Cc1ccc(Cl)cc1 (stereo partly shown) [Compound 580]
50 to 500	Cc1cc(C#N)ccc1NC(=O)N1CC(F)C[C@@H]1c1nnc(C)n1Cc1ccc(Cl)cc1 (stereo partly shown) [Compound 581]
50 to 500	CCc1nnc([C@H]2CCCN2C(=O)Nc2c(C)noc2C)n1Cc1ccc(Cl)cc1 [Compound 582]
< 50	CCc1nnc([C@H]2CCCN2C(=O)Nc2ccc(Cl)cc2F)n1Cc1ccc(Cl)cc1 [Compound 583]
< 50	CCc1nnc([C@H]2CCCN2C(=O)Nc2ccc(C(F)(F)F)nc2C)n1Cc1ccc(Cl)cc1 [Compound 584]
< 50	CC[C@H](NC(=O)N1CCC[C@@H]1c1nnc(C)n1Cc1ccc(Br)cc1)c1cc2ccccc2o1 [Compound 585]

SMILES	IC50 [nM]
Cc1nnc([C@H]2CCCN2C(=O)Nc2ccc(C#N)c(C(F)(F)F)c2)n1Cc1ccc(Cl)cc1 [Compound 525]	50 to 500
Cc1c(NC(=O)N2CCC[C@@H]2c2nnc(C)n2Cc2ccc(Cl)cc2)ccc(C#N)c1C(F)(F)F [Compound 527]	< 50
Cc1c(NC(=O)N2CCC[C@@H]2c2nnc(C)n2Cc2ccc(Cl)cc2)ccc(C#N)c1Cl [Compound 528]	< 50
